From ChEMBL document CHEMBL1136728, “Antitumor activity of novel deoxoartemisinin monomers, dimers, and trimer” (J Med Chem, 2003)
In brackets after ≈: the same amount, converted by molar mass.

How the values were obtained:
Format in all cases: functional, cell-based
[1] = tested on: P388; assay: In vitro cytotoxicity of compound against P388, mouse […] leukemia was defined by microculture tetrazolium assay
[2] = tested on: BeWo; assay: In vitro cytotoxicity of compound against Bewo, human choriocarcinoma was defined by microculture tetrazolium assay
[3] = tested on: EL4; assay: In vitro cytotoxicity of compound against EL4, mouse thymoma was defined by microculture tetrazolium assay
[4] = tested on: HT-29; assay: In vitro cytotoxicity of compound against HT29, human colorectal adenocarcinoma was defined by microculture tetrazolium assay
[5] = tested on: MCF7; assay: In vitro cytotoxicity of compound against MCF7, human breast cancer was defined by microculture tetrazolium assay

| Structure (SMILES) | IC50 [1] [µg/mL] | IC50 [2] [µg/mL] | IC50 [3] [µg/mL] | IC50 [4] [µg/mL] | IC50 [5] [µg/mL] |
| --- | --- | --- | --- | --- | --- |
| C[C@H]1[C@@H](CCNC(=O)CC[C@H]2O[C@@H]3O[C@]4(C)CC[C@H]5[C@H](C)CC[C@@H]([C@H]2C)[C@]35OO4)O[C@@H]2O[C@]3(C)CC[C@H]4[C@H](C)CC[C@@H]1[C@]24OO3 | 10.4 (≈ 16.4 µM) | 7.5 (≈ 11.8 µM) | 6.29 (≈ 9.92 µM) | 0.69 (≈ 1.09 µM) | 0.005 (≈ 0.00789 µM) |
| C[C@H]1[C@@H](CCSCC[C@H]2O[C@@H]3O[C@]4(C)CC[C@H]5[C@H](C)CC[C@@H]([C@H]2C)[C@]35OO4)O[C@@H]2O[C@]3(C)CC[C@H]4[C@H](C)CC[C@@H]1[C@]24OO3 | 0.4 (≈ 0.642 µM) | 14.2 (≈ 22.8 µM) | 0.23 (≈ 0.369 µM) | 0.24 (≈ 0.385 µM) | 0.017 (≈ 0.0273 µM) |
| C[C@H]1[C@@H](CCS(=O)(=O)CC[C@H]2O[C@@H]3O[C@]4(C)CC[C@H]5[C@H](C)CC[C@@H]([C@H]2C)[C@]35OO4)O[C@@H]2O[C@]3(C)CC[C@H]4[C@H](C)CC[C@@H]1[C@]24OO3 | 5.6 (≈ 8.55 µM) | 1.04 (≈ 1.59 µM) | 0.54 (≈ 0.825 µM) | 0.38 (≈ 0.58 µM) | 0.025 (≈ 0.0382 µM) |
| C[C@H]1[C@@H](CCS(=O)(=O)CCCS(=O)(=O)CC[C@H]2O[C@@H]3O[C@]4(C)CC[C@H]5[C@H](C)CC[C@@H]([C@H]2C)[C@]35OO4)O[C@@H]2O[C@]3(C)CC[C@H]4[C@H](C)CC[C@@H]1[C@]24OO3 | 8.4 (≈ 11 µM) | 8.5 (≈ 11.2 µM) | 10 (≈ 13.1 µM) | 0.38 (≈ 0.499 µM) | 5.6 (≈ 7.36 µM) |
| C[C@H]1[C@@H](CCCCNC(=O)CC[C@H]2O[C@@H]3O[C@]4(C)CC[C@H]5[C@H](C)CC[C@@H]([C@H]2C)[C@]35OO4)O[C@@H]2O[C@]3(C)CC[C@H]4[C@H](C)CC[C@@H]1[C@]24OO3 | > 20 | > 20 | > 20 | 20.2 (≈ 30.5 µM) | > 20 |
| C[C@H]1[C@@H](CCCCN=[N+]=[N-])O[C@@H]2O[C@]3(C)CC[C@H]4[C@H](C)CC[C@@H]1[C@]24OO3 | 10.3 (≈ 28.2 µM) | > 20 | 1.61 (≈ 4.41 µM) | 2.76 (≈ 7.55 µM) | 11.6 (≈ 31.7 µM) |
| C[C@H]1[C@@H](CCCCN)O[C@@H]2O[C@]3(C)CC[C@H]4[C@H](C)CC[C@@H]1[C@]24OO3 | 6.18 (≈ 18.2 µM) | > 20 | 5.63 (≈ 16.6 µM) | 2.2 (≈ 6.48 µM) | 0.02 (≈ 0.0589 µM) |
| C[C@H]1[C@@H](CCNC(=O)CC[C@H](N)C(=O)NCC[C@H]2O[C@@H]3O[C@]4(C)CC[C@H]5[C@H](C)CC[C@@H]([C@H]2C)[C@]35OO4)O[C@@H]2O[C@]3(C)CC[C@H]4[C@H](C)CC[C@@H]1[C@]24OO3 | 15.6 (≈ 21.3 µM) | > 20 | 16.5 (≈ 22.5 µM) | 6.5 (≈ 8.86 µM) | 15.3 (≈ 20.8 µM) |
| C[C@H]1[C@@H](CCNC(=O)CC[C@H](NC(=O)CC[C@H]2O[C@@H]3O[C@]4(C)CC[C@H]5[C@H](C)CC[C@@H]([C@H]2C)[C@]35OO4)C(=O)NCC[C@H]2O[C@@H]3O[C@]4(C)CC[C@H]5[C@H](C)CC[C@@H]([C@H]2C)[C@]35OO4)O[C@@H]2O[C@]3(C)CC[C@H]4[C@H](C)CC[C@@H]1[C@]24OO3 | 0.12 (≈ 0.114 µM) | 18.3 (≈ 17.3 µM) | 1.07 (≈ 1.01 µM) | 0.09 (≈ 0.0852 µM) | 0.017 (≈ 0.0161 µM) |
| C[C@H]1[C@@H](CCC(=O)N[C@@H](CCC(=O)O)C(=O)O)O[C@@H]2O[C@]3(C)CC[C@H]4[C@H](C)CC[C@@H]1[C@]24OO3 | > 20 | > 20 | > 20 | 8.6 (≈ 18.3 µM) | 13.4 (≈ 28.5 µM) |
| COc1cccc2c1C(=O)c1c(O)c3c(c(O)c1C2=O)C[C@@](O)(C(=O)CO)C[C@@H]3O[C@H]1C[C@H](N)[C@H](O)[C@H](C)O1 [DOXORUBICIN] | 0.39 (≈ 0.718 µM) | 6.24 (≈ 11.5 µM) | 0.67 (≈ 1.23 µM) | 0.1 (≈ 0.184 µM) | – |
| CO[C@@]12[C@H](COC(N)=O)C3=C(C(=O)C(C)=C(N)C3=O)N1C[C@@H]1N[C@@H]12 [MITOMYCIN] | 1.5 (≈ 4.49 µM) | 0.85 (≈ 2.54 µM) | 3.94 (≈ 11.8 µM) | 0.02 (≈ 0.0598 µM) | 0.93 (≈ 2.78 µM) |
| CC(=O)O[C@H]1C(=O)[C@@]2(C)[C@H]([C@H](OC(=O)c3ccccc3)[C@]3(O)C[C@H](OC(=O)[C@H](O)[C@@H](NC(=O)c4ccccc4)c4ccccc4)C(C)=C1C3(C)C)[C@]1(OC(C)=O)CO[C@@H]1C[C@@H]2O [PACLITAXEL] | 2.27 (≈ 2.66 µM) | 7.39 (≈ 8.65 µM) | 1.34 (≈ 1.57 µM) | 0.01 (≈ 0.0117 µM) | – |
